Data set [1] is described as follows: in vitro. Particulars: human, A549 cells.
Data set [2] is described as follows: Cytotoxicity against African green monkey Vero cells assessed as reduction in cell viability after 48 hrs by MTT assay. Format: cell-based. The conditions noted are these: chlorocebus sabaeus. Background: Formazan colour is commonly taken as a measure of viable cells.
A short description of data set [3]: in vitro. Particulars: monkey, Vero cells.
The test system of data set [4] is Junin virus. Format: functional, organism-based. Particulars: Mammarenavirus juninense, IV4454, A549, 48 h.
Data set [5] in a line: Cytotoxicity against human A549 cells assessed as reduction in cell viability after 48 hrs by MTT assay. Format: cell-based.
Data set [6] relates to Junin virus. The data set is classed as functional, organism-based. The conditions noted are these: Mammarenavirus juninense, IV4454, Vero, 48 h.
Data set [7] is described as follows: Solubility of the compound in water. The data set is classed as physicochemical.

SMILES strings stand for the structures. Where only a bound is given, the exact number is not on record here.

As usually defined, the CC50 is the concentration at which the toxic effect on the cells reaches its halfway point. The EC50 is the concentration needed to bring the measured effect to its halfway point. Regarding `OCc1cn([C@@H]2O[C@H](CO)[C@@H](O)[C@H]2O)nn1`, the results for the selectivity ratio in data set [1] and in data set [3] were over 19.7 and over 4.7, respectively. Besides, the CC50 at 48 h in data set [2] and in data set [5] was over 1000 µM throughout. In addition, the EC50 was 50.7 µM in data set [4] and 215 µM in data set [6].
The solubility is the concentration that dissolves in the medium under given conditions. Turning to `CCCCn1cc(COC[C@@H](O)[C@H](O)[C@H](O)[C@@H](O)CO)nn1`, the CC50 at 48 h in data set [2] and in data set [5] was over 1000 µM in each case. The compound further displayed a solubility in data set [7] of over 100 mg/mL. For the same compound, the EC50 in data set [4] and in data set [6] was over 500 µM throughout.
On to `CC1(C)O[C@@H]2[C@H](O1)[C@@H](Cn1cc(COC[C@@H](O)[C@H](O)[C@H](O)[C@@H](O)CO)nn1)O[C@H]2n1cc(COCC(COCc2cn([C@@H]3O[C@H](Cn4cc(COC[C@@H](O)[C@H](O)[C@H](O)[C@@H](O)CO)nn4)[C@H]4OC(C)(C)O[C@H]43)nn2)(COCc2cn([C@@H]3O[C@H](Cn4cc(COC[C@H](O)[C@@H](O)[C@@H](O)[C@H](O)CO)nn4)[C@H]4OC(C)(C)O[C@H]43)nn2)COCc2cn([C@@H]3O[C@H](Cn4cc(COC[C@H](O)[C@@H](O)[C@@H](O)[C@H](O)CO)nn4)[C@H]4OC(C)(C)O[C@H]43)nn2)nn1`, for which the CC50 at 48 h in data set [2] and in data set [5] was over 1000 µM throughout. In data set [7], the solubility was over 100 mg/mL. Further, the EC50 in data set [4] and in data set [6] was over 500 µM in each case.
For the compound `OC[C@@H](O)[C@H](O)[C@H](O)[C@@H](O)COCc1cn(CC(Cn2cc(COC[C@@H](O)[C@H](O)[C@H](O)[C@@H](O)CO)nn2)(Cn2cc(COC[C@@H](O)[C@H](O)[C@H](O)[C@@H](O)CO)nn2)Cn2cc(COC[C@@H](O)[C@H](O)[C@H](O)[C@@H](O)CO)nn2)nn1`, the CC50 at 48 h in data set [2] and in data set [5] was over 1000 µM in each case. This compound also displayed a solubility in data set [7] of over 100 mg/mL. Besides, the EC50 in data set [4] and in data set [6] was over 500 µM in each case.
Regarding `CC(=O)OC[C@H]1O[C@@H](n2cc(COCC(COCc3cn([C@@H]4O[C@H](COC(C)=O)[C@@H](OC(C)=O)[C@H]4OC(C)=O)nn3)(COCc3cn([C@@H]4O[C@H](COC(C)=O)[C@@H](OC(C)=O)[C@H]4OC(C)=O)nn3)COCc3cn([C@@H]4O[C@H](COC(C)=O)[C@@H](OC(C)=O)[C@H]4OC(C)=O)nn3)nn2)[C@H](OC(C)=O)[C@@H]1OC(C)=O`, the CC50 at 48 h in data set [2] and in data set [5] was over 1000 µM throughout. Further, the 50% effective concentration (EC50) in data set [4] and in data set [6] was over 500 µM each time.
Consider `CC1(C)O[C@@H]2[C@H](O1)[C@@H](CO)O[C@H]2n1cc(CO)nn1`, for which the selectivity ratio in data set [1] is over 11.6; in data set [3], over 19.5. Besides, the CC50 at 48 h in data set [2] and in data set [5] was over 1000 µM in each case. Besides, the results for the EC50 in data set [4] and in data set [6] were 86.4 µM and 51.3 µM, respectively.
Take `CCCCn1cc(CO[C@@H]2O[C@H](CN=[N+]=[N-])[C@H]3OC(C)(C)O[C@@H]23)nn1`: the values for the selectivity ratio in data set [1] and in data set [3] were 38.5 and 57.9, respectively. Besides, the results for the CC50 at 48 h in data set [2] and in data set [5] were 762 µM and 525 µM, respectively. Further, the EC50 in data set [4] was 13.6 µM; in data set [6] it was 13.2 µM.
With `CC(=O)OC[C@H]1O[C@@H](n2cc(CO)nn2)[C@H](OC(C)=O)[C@@H]1OC(C)=O`, the values for the selectivity ratio in data set [1] and in data set [3] were over 3.1 and over 7.7, respectively. For the same compound, the CC50 at 48 h in data set [2] and in data set [5] was over 1000 µM in each case. Also, the EC50 worked out at 322 µM in data set [4] and 130 µM in data set [6].
Regarding `CCCCn1cc(CO[C@@H]2O[C@H](CO)[C@H]3OC(C)(C)O[C@@H]23)nn1`, the figures for the selectivity ratio in data set [1] and in data set [3] were over 17.9 and over 17.5, respectively. The CC50 at 48 h in data set [2] and in data set [5] was over 1000 µM throughout. Besides, the values for the EC50 in data set [4] and in data set [6] were 55.9 µM and 57.2 µM, respectively.
In the case of `CC1(C)O[C@H]2[C@H](OCc3cn(CC(Cn4cc(CO[C@@H]5O[C@H](CO)[C@H]6OC(C)(C)O[C@@H]56)nn4)(Cn4cc(CO[C@@H]5O[C@H](CO)[C@H]6OC(C)(C)O[C@@H]56)nn4)Cn4cc(CO[C@@H]5O[C@H](CO)[C@H]6OC(C)(C)O[C@@H]56)nn4)nn3)O[C@H](CO)[C@H]2O1`, the figures for the selectivity ratio in data set [1] and in data set [3] were 6.2 and 6.5, respectively. Also, the figures for the 50% cytotoxic concentration (CC50) at 48 h in data set [2] and in data set [5] were 233 µM and 209 µM, respectively. The figures for the EC50 in data set [4] and in data set [6] were 33.4 µM and 35.5 µM, respectively.
As to `CC1(C)O[C@H]2[C@H](OCc3cn(CC(Cn4cc(CO[C@@H]5O[C@H](Cn6cc(COC[C@H]7OC(O)[C@H](O)[C@@H](O)[C@H]7O)nn6)[C@H]6OC(C)(C)O[C@@H]56)nn4)(Cn4cc(CO[C@@H]5O[C@H](Cn6cc(COC[C@H]7OC(O)[C@H](O)[C@@H](O)[C@H]7O)nn6)[C@H]6OC(C)(C)O[C@@H]56)nn4)Cn4cc(CO[C@@H]5O[C@H](Cn6cc(COC[C@H]7OC(O)[C@H](O)[C@@H](O)[C@H]7O)nn6)[C@H]6OC(C)(C)O[C@@H]56)nn4)nn3)O[C@H](Cn3cc(COC[C@H]4OC(O)[C@H](O)[C@@H](O)[C@H]4O)nn3)[C@H]2O1` (some centres not stated), the CC50 at 48 h in data set [2] and in data set [5] was over 1000 µM in each case. The solubility in data set [7] is over 100 mg/mL. Moreover, the concentration giving a half-maximal response (EC50) in data set [4] and in data set [6] was over 500 µM in each case.
`OC[C@H]1O[C@@H](n2cc(COCC(COCc3cn([C@@H]4O[C@H](CO)[C@@H](O)[C@H]4O)nn3)(COCc3cn([C@@H]4O[C@H](CO)[C@@H](O)[C@H]4O)nn3)COCc3cn([C@@H]4O[C@H](CO)[C@@H](O)[C@H]4O)nn3)nn2)[C@H](O)[C@@H]1O`: the CC50 at 48 h in data set [2] and in data set [5] was over 1000 µM throughout. Also, the EC50 in data set [4] and in data set [6] was over 500 µM each time.
Consider `CC1(C)O[C@@H]2[C@H](O1)[C@@H](CO)O[C@H]2n1cc(COCC(COCc2cn([C@@H]3O[C@H](CO)[C@H]4OC(C)(C)O[C@H]43)nn2)(COCc2cn([C@@H]3O[C@H](CO)[C@H]4OC(C)(C)O[C@H]43)nn2)COCc2cn([C@@H]3O[C@H](CO)[C@H]4OC(C)(C)O[C@H]43)nn2)nn1`, for which the CC50 at 48 h in data set [2] and in data set [5] was over 1000 µM throughout. For the same compound, the half-maximal effective concentration (EC50) in data set [4] and in data set [6] was over 500 µM in each case.
Turning to `CC1(C)O[C@H]2[C@H](OCc3cn(CC(Cn4cc(CO[C@@H]5O[C@H](CN=[N+]=[N-])[C@H]6OC(C)(C)O[C@@H]56)nn4)(Cn4cc(CO[C@@H]5O[C@H](CN=[N+]=[N-])[C@H]6OC(C)(C)O[C@@H]56)nn4)Cn4cc(CO[C@@H]5O[C@H](CN=[N+]=[N-])[C@H]6OC(C)(C)O[C@@H]56)nn4)nn3)O[C@H](CN=[N+]=[N-])[C@H]2O1` (some centres not stated), the CC50 at 48 h in data set [2] and in data set [5] was over 1000 µM in each case. Moreover, the EC50 in data set [4] and in data set [6] was over 500 µM each time.
As for `NC(=O)c1ncn([C@@H]2O[C@H](CO)[C@@H](O)[C@H]2O)n1` [RIBAVIRIN], the selectivity ratio in data set [1] is 15.9; in data set [3], over 21.6. Besides, the results for the CC50 at 48 h in data set [2] and in data set [5] were over 400 µM and 307 µM, respectively. This compound returned an EC50 in data set [4] of 19.2 µM.

Source of the values: ChEMBL document CHEMBL4330122, “Modified ribavirin analogues as antiviral agents against Junín virus” (Bioorg Med Chem Lett, 2019).
